According to article PMC5617480 (Oncotarget, 2017):

System: BEL-7402 xenograft
Test: In vivo tumor growth inhibition, BEL-7402 xenograft model
Conditions: BEL-7402 model; for Average tumor weight (mean ± SD g) / Tumor volume (End) / Body weight (End) / RBW (%) (End): day 18; for inhibition in weight: p<0.05
Description: In vivo anticancer efficacy of chiral platinum(II) complex 6 was evaluated using BEL-7404 and BEL-7402 xenograft mouse models. BEL-7404 and BEL-7402 cells were injected into nude mice. The mice were randomized into the control group, complex 6-treated group, and the positive control group (n = 6/group). When the volume of tumor was about 80 mm^3, complex 6 was given at a high (8 mg/kg) and low (4 mg/kg) dosage daily for 18 days, 5-FU (20 mg/kg every two days) and Cisplatin (2 mg/kg every two days) were used as a positive control in the BEL-7404 and BEL-7402 xenograft model, respectively.
To evaluate the vivo anticancer efficacy of complex 6, BEL-7404 and BEL-7402 xenograft mouse models (BALB/c nude mice, female for BEL-7404 model, 17–20 g, 6–7 weeks old; male for BEL-7402 model, 18-21 g, 6–7 weeks old) were used. Furthermore, animal used, maximum tolerated dose (MTD) analysis, acute toxicity studies and antitumor activity toward BEL-7404 and BEL-7402 models in vivo of complex 6, was similar to Chen reported.
H21T (3.5 pmol; 5’-G [T AG ] -3’), primer TS (18 pmol; tumor tissue were cut into about 1.5 mm3 small pieces, and […]
5’-[…]-3’), KCl (63 mM), then transplanted into the right flank of nude mice. When EGTA (1 mM), MgCl (1.5 mM), Tween-20 (0.005%), the average tumors reach a volume of about 80 mm3, the […]
primer NT (7.5 pmol; 5’-[…]-3’), mice were randomized into 4 groups (n=6), received the […]
TSNT internal control (0.01 amol; 5’-[…] following treatments: (a) control, received saline solvent; […]
-3’), primer (b) complex 6 at doses of 8.0 mg/kg daily (dissolve in […]
Cxext (22.5 pmol; 5’-[…] saline, iv); (c) complex 6 at doses of 4.0 mg/kg daily; […]
[…]-3’), Taq DNA polymerase (2.5 U), and (d) in BEL-7404 model, 5-fluorouracil (5-Fu) as positive telomerase (100 ng). Complexes or/and distilled water control at 20 mg/kg per two days (dissolve in saline, iv); was added ([…]). PCR was performed in an Eppendorf in BEL-7402 model, cisplatin as positive control at 2 mg/ Master cycler equipped with a hot lid and incubated for kg per two days (dissolve in saline, iv).
30.0 min at 30 °C, followed by 92 °C 30 s, 52 °C 30 s, The tumor volumes and body weight was monitored and 72°C 30 s for 30.0 cycles. After amplification, 8.0 every 3 days, The tumor volumes were estimated by […] loading buffer (5×TBE buffer, 0.2% xylene cyanol, measuring the two dimensions of the tumors using caliper and 0.2% bromophenol blue ) were added to the reaction. and calculated by the formula 1 [1, 6, 14]:
An […] of aliquot was loaded onto a nondenaturing V = (length × width2)/2(1) acrylamide gel (19:1, 16%) in 1×TBE buffer and resolved at 200.0 V for 1.0 h. Gels were fixed and then stained with On day 18, the mice were sacrificed, and tumor AgNO3 [8–11]. tissue were dissected out and weighted, tumor growth inhibition rate calculated using formulas 2 and 3 [1, 6,
In order to verify whether complexes 4–6 can TGI (%) = (ΔVc − ΔVt)/ΔVc×100%(2) directly regulate c-myc promoter (Pu27) and the IR(%) = (Wc − Wt)/Wc×100%(3) expression of hTRET in BEL-7404 cells, consequently Where ΔVt = tumor volumefinal −tumor volumeinitial inhibiting the telomerase function, we constructed EGFP for compound treated group, ΔVc=tumor volumefinal − and c-myc gene vectors according to those illustrated tumor volumeinitial for vehicle control group; Wt and Wc in Chalfie, Chen and He previous work. The detailed mean the average tumor weight of complex-treated and procedures for the construct of gene (c-myc and EGFP vehicle controlled group respectively. genes) vectors, and the method of transfection assays REFERENCES have been reported by Chalfie, Chen and He [1, 6, 9, 12,

[1] = Cisplatin 2.0 mg/kg per two days iv

Row | Compound | Tumor volume (start) [1] [mm3] | Average tumor weight (mean ± SD g) [1] [g] | Tumor volume (End) [1] [mm3] | inhibition in weight (4 mg/kg daily for 18 days) [%] | inhibition in weight (8 mg/kg daily for 18 days) [%] | Body weight (start) (6 4.0 mg/kg daily iv) [g] | Tumor volume (start) (6 4.0 mg/kg daily iv) [mm3] | Average tumor weight (mean ± SD g) (6 4.0 mg/kg daily iv) [g] | Body weight (End) (6 4.0 mg/kg daily iv) [g] | RBW (%) (End) (6 4.0 mg/kg daily iv) | Tumor volume (End) (6 4.0 mg/kg daily iv) [mm3] | TGI (%) (6 4.0 mg/kg daily iv, day 18, by tumor volume) | Inhibition of tumor growth (%) (6 4.0 mg/kg daily iv, day 18, by tumor weight) | Body weight (start) (6 8.0 mg/kg daily iv) [g] | Tumor volume (start) (6 8.0 mg/kg daily iv) [mm3] | Average tumor weight (mean ± SD g) (6 8.0 mg/kg daily iv) [g] | Body weight (End) (6 8.0 mg/kg daily iv) [g] | RBW (%) (End) (6 8.0 mg/kg daily iv) | Tumor volume (End) (6 8.0 mg/kg daily iv) [mm3]
1 | N.N.[Cl][Pt][Cl] [cisplatin, reference compound] | 78.6±37.7 | 0.38 ± 0.18 | 329.9±155.2 | – | – | – | – | – | – | – | – | – | – | – | – | – | – | – | –
2 | cis-[PtCl2(S-(–)-FOA)] [complex 6] | – | – | – | 32.9 | 47.1 | 19.1 ± 1.6 | 78.7±58.4 | 0.84 ± 0.39 | 22.3 ± 1.3 | 117.7±6.3 | 648.8±242.1 | 32.9 | 29.4 | 20.2 ± 0.7 | 79.4±28.4 | 0.67 ± 0.46 | 23.4 ± 1.4 | 115.5±4.6 | 521.0±319.9
